Measured values taken from patent US8034812B2, “Imidazopyridazine derivative having kinase inhibitory activity and pharmaceutical agent thereof” (Takeda Pharmaceutical Company Limited, priority 2006, dated 2011).

Target: T1, BRAF (V600E) enzyme (Homo sapiens, UniProt P15056, V600E)
T1 construct: area encoding the BRAF kinase domain region, so that the protein contains an N-terminal Flag; made in house; host or cells: SF-21 insect cells, recombinant baculovirus BAC-V600E
Assay: Determination of BRAF (V600E) kinase inhibitory activity ([γ-32P]ATP, GST-MEK1 (K96R) substrate)
Assay type: biochemical
Conditions: read-out: BRAF (V600E) kinase inhibitory rate
Experimental: Human BRAF gene was cloned by PCR using human Testis cDNA library (Clontech) as a template. The primer used for PCR was prepared from base sequence (Genbank Accession NM_004333) information of BRAF gene by adding a base sequence encoding flag peptide and a recognition sequence of the restriction enzyme to area encoding the BRAF kinase domain region, so that the protein contains an N-terminal Flag. The primer base sequence is shown below.
The PCR reaction was conducted using Pyrobest (Takara Shuzo Co., Ltd). The obtained PCR product was electrophoresed on agarose gel (1%), the DNA fragment amplified by PCR was recovered from the gel, and then digested with restriction enzymes EcoRI and SalI. The DNA treated with the restriction enzymes was electrophoresed on agarose gel (1%), and the obtained DNA fragment was recovered and ligated to plasmid pFASTBAC1 (Invitrogen) digested with restriction enzymes EcoRI and SalI to give expression plasmid pFB-BRAF, and the base sequence of the insert fragment was confirmed. In addition, mutation was introduced into V600E using a Quick change Site Directed Mutagenesis kit (Stratagene). The nucleotide sequences of the primers used are shown in the following.
SF-21 cells were sown at 1×10^6 cells/mL to Sf-900II SFM medium (1 L, Invitrogen) containing 10% fetal bovine serum (Trace), 50 mg/L Gentamicin (Invitrogen) and 0.1% Pluronic F-68 (Invitrogen), and shaking culture was performed using a 2 L volume Erlenmeyer flask at 27° C., 100 rpm. After culturing for 24 hrs, recombinant baculovirus BAC-V600E (13.4 mL) was added to the mixture, and the mixture was further cultured for 3 days. The culture medium was centrifuged at 2,000 rpm for 5 min to give virus-infected cells. The infected cells were washed with a phosphate buffered saline (Invitrogen), centrifuged under the same conditions, and the cells were preserved at −80° C. The cryopreserved cells were thawed in ice, suspended in buffer A (50 mM Tris buffer (30 mL, pH 7.4) containing 20% glycerol, 0.15 M NaCl) supplemented with Complete Protease Inhibitor (Boehringer), and ruptured 3 times with a Polytron homogenizer (Kinematica) at 20,000 rpm for 30 sec. The ruptured medium was clarified by centrifugation at 40,000 rpm for 30 min and filtered with a 0.45 μm filter. The filtrate was passed through a column packed with Anti-FLAG M2 Affinity Gel (4 mL, Sigma) at a flow rate of about 0.5 mL/min. The column was washed with buffer A, and eluted with buffer A containing 100 μg/mL of FLAG peptide. The buffer of this concentrate was exchanged using NAP25 column (Amersham Bioscience) equilibrated with buffer A and the fractions were cryopreserved at −80° C.
A test compound (2.5 μl) dissolved in dimethyl sulfoxide (DMSO) was added to 37.5 μl of a reaction solution (25 mM HEPES (pH 7.5), 10 mM magnesium acetate, 1 mM dithiothreitol) containing BRAF (V600E) enzyme (30 ng) and recombinant type protein GST-MEK1 (K96R) 250 ng, and the mixture was incubated at room temperature for 10 min. ATP solution (10 μl) (2.5 μM ATP, 0.1 μCi [γ-^32P]ATP) was added to the obtained mixture, and the mixture was reacted at room temperature for 20 min. The reaction was quenched by adding 50 μL of ice-cooled 20% trichloroacetic acid (Wako Pure Chemical Industries, Ltd.). The reaction solution was allowed to stand at 4° C. for 30 min, and the acid-precipitable fraction was transferred to GF/C filter plate (Millipore Corporation) using cell harvester (PerkinElmer). The plate was dried at 45° C. for 60 min, and 40 μL of MicroScinti 0 (PerkinElmer) was added thereto. The radioactivity was measured using TopCount (PerkinElmer). The kinase inhibitory rate (%) of the test compound was calculated by the following formula: Inhibitory rate(%)=(1−(count of test compound−blank)÷(control−blank))×100
The count of the solution reacted without addition of the compound was used as a “control”, and the count of the solution without the compound and enzyme was used as a “blank”. […]

T1 sequence (P15056 457-717 V600E limits assumed): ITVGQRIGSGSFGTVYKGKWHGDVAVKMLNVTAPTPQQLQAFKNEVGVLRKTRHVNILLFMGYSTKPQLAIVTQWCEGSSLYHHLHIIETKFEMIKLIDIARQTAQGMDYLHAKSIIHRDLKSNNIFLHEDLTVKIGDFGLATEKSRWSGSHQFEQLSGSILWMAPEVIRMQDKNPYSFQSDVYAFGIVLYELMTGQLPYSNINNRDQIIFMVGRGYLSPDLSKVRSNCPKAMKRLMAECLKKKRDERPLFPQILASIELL

SMILES | inhibition at 1 µM
Cc1ccc(Oc2ccc3nc(NC(=O)C4CC4)cn3n2)cc1NC(=O)c1cccc(C(C)(C)C#N)c1 [Example 330, 3-(1-cyano-1-methylethyl)-N-[5-({2-[(cyclopropylcarbonyl)amino]imidazo[1,2-b]pyridazin-6-yl}oxy)-2-methylphenyl]benzamide] | ≥ 90%
CN(C)CC(=O)Nc1cn2nc(Oc3cccc(NC(=O)c4cccc(C(F)(F)F)c4)c3)ccc2n1 [Example 398, N-[3-({2-[(N,N-dimethylglycyl)amino]imidazo[1,2-b]pyridazin-6-yl}oxy)phenyl]-3-(trifluoromethyl)benzamide] | ≥ 90%
O=C(Nc1cccc(Sc2ccc3nc(NC(=O)C4CC4)cn3n2)c1)c1cccc(C(F)(F)F)c1 [Example 427, N-[3-({2-[(cyclopropylcarbonyl)amino]imidazo[1,2-b]pyridazin-6-yl}thio)phenyl]-3-(trifluoromethyl)benzamide] | ≥ 90%
O=C(Nc1cccc(Oc2ccc3nc(NC(=O)C4CC4)cn3n2)c1)Nc1cccc(C(F)(F)F)c1 [Example 431, N-{6-[3-({[3-(trifluoromethyl)phenyl]carbamoyl}amino)phenoxy]imidazo[1,2-b]pyridazin-2-yl}cyclopropanecarboxamide] | ≥ 90%
